From the supplement of paper PMC13380429

Experiments:
[1] = tested on: A549-ACE2 infected with SARS-CoV-2; assay: cell count relative to DMSO; higher = less toxic; conditions: 24 h
[2] = tested on: A549-ACE2 infected with SARS-CoV-2; assay: morphology score (similarity to uninfected cells); higher = more like uninfected cells; conditions: 24 h
A549-ACE2 [3] = assay: phospholipidosis EC50; higher = less potent phospholipidosis inducer
Caco-2 [4] = assay: cell viability relative to DMSO; higher = less toxic; conditions: 72 h
Vero E6 [5] = assay: as above; conditions: 72 h
Calu-3 [6] = assay: as above; conditions: 72 h
U2OS [7] = assay: as above; conditions: 72 h
HepG2 [8] = assay: as above; conditions: 72 h
A549-ACE2 [9] = assay: drug-induced phospholipidosis relative to tamoxifen; higher = more phospholipidosis
[10] = tested on: A549-ACE2 infected with SARS-CoV-2; assay: SARS-CoV-2 infection rate relative to DMSO; higher = more infection; conditions: 24 h
Caco-2 [11] = assay: drug sensitivity score (DSS) for viability; higher = more toxic; extreme values may be limits of the assay; conditions: 72 h
Vero E6 [12] = assay: as above; conditions: 72 h
Calu-3 [13] = assay: as above; conditions: 72 h
U2OS [14] = assay: as above; conditions: 72 h
HepG2 [15] = assay: as above; conditions: 72 h
Caco-2 [16] = assay: relative viability EC50 (midpoint between 100% and the lowest measured viability); higher = less toxic; conditions: 72 h
Vero E6 [17] = assay: as above; conditions: 72 h
HepG2 [18] = assay: as above; conditions: 72 h
Calu-3 [19] = assay: as above; conditions: 72 h
U2OS [20] = assay: as above; conditions: 72 h

NC(=O)N1CCC(CC(=O)N2CCC([C@H]3c4ncc(Br)cc4CCc4cc(Cl)cc(Br)c43)CC2)CC1 [lonafarnib]
Conditions | SARS-CoV-2 infection rate [%] | cell count [%] | cell viability [%] | morphology score | phospholipidosis EC50 [µM]
A549-ACE2 [3], 24 h | – | – | – | – | 7.17
Caco-2 [4], 1 nM | – | – | 91.3 | – | –
Caco-2 [4], 10 nM | – | – | 106 | – | –
Caco-2 [4], 100 nM | – | – | 94.6 | – | –
Caco-2 [4], 1000 nM | – | – | 79.7 | – | –
Caco-2 [4], 10000 nM | – | – | 47.7 | – | –
Calu-3 [6], 1 nM | – | – | 80.5 | – | –
Calu-3 [6], 10 nM | – | – | 91.2 | – | –
Calu-3 [6], 100 nM | – | – | 91.3 | – | –
Calu-3 [6], 1000 nM | – | – | 72.6 | – | –
Calu-3 [6], 10000 nM | – | – | 68.5 | – | –
HepG2 [8], 1 nM | – | – | 102 | – | –
HepG2 [8], 10 nM | – | – | 98.7 | – | –
HepG2 [8], 100 nM | – | – | 96.2 | – | –
HepG2 [8], 1000 nM | – | – | 89.5 | – | –
HepG2 [8], 10000 nM | – | – | 49.8 | – | –
U2OS [7], 1 nM | – | – | 97.5 | – | –
U2OS [7], 10 nM | – | – | 100 | – | –
U2OS [7], 100 nM | – | – | 95 | – | –
U2OS [7], 1000 nM | – | – | 92 | – | –
U2OS [7], 10000 nM | – | – | 67.2 | – | –
Vero E6 [5], 1 nM | – | – | 103 | – | –
Vero E6 [5], 10 nM | – | – | 94.1 | – | –
Vero E6 [5], 100 nM | – | – | 94.8 | – | –
Vero E6 [5], 1000 nM | – | – | 93.3 | – | –
Vero E6 [5], 10000 nM | – | – | 88.3 | – | –
[1], 0.3 µM | – | 98 | – | – | –
[1], 3 µM | – | 102 | – | – | –
[1], 10 µM | – | 94 | – | – | –
[1], 30 µM | – | 74 | – | – | –
[2], 0.3 µM | – | – | – | 0.19 | –
[2], 3 µM | – | – | – | 0.41 | –
[2], 10 µM | – | – | – | 0.69 | –
[2], 30 µM | – | – | – | 0.56 | –
[10], 0.3 µM | 97 | – | – | – | –
[10], 3 µM | 85 | – | – | – | –
[10], 10 µM | 71 | – | – | – | –
[10], 30 µM | 11 | – | – | – | –

drug-induced phospholipidosis [%], A549-ACE2 [9]
Conditions | 0.3 µM | 0.833333 µM | 3.33333 µM | 6.66667 µM | 10 µM | 30 µM
24 h | 11.7 | 7.58 | 19.6 | 27.3 | 40.9 | 50.3
48 h | 16.3 | 10.1 | 20.5 | 30.3 | 36.1 | –
72 h | 15.9 | 12.2 | 29.3 | 42.5 | 51.2 | –

Conditions | drug sensitivity score | relative viability EC50 [µM]
Caco-2 [11] | 5 | –
Caco-2 [16] | – | 1.29
Calu-3 [13] | 6.3 | –
HepG2 [15] | 4.4 | –
HepG2 [18] | – | 1.7
U2OS [14] | 2.6 | –
Vero E6 [12] | 0 | –
Vero E6 [17] | – | > 10

CCN(CC)CCCCN1c2ccccc2Oc2ccc(Cl)cc21 [10-DEBC]
Conditions | SARS-CoV-2 infection rate [%] | cell count [%] | cell viability [%] | morphology score | phospholipidosis EC50 [µM]
A549-ACE2 [3], 24 h | – | – | – | – | 3.06
A549-ACE2 [3], 48 h | – | – | – | – | 3.97
A549-ACE2 [3], 72 h | – | – | – | – | 4.34
Caco-2 [4], 1 nM | – | – | 93.2 | – | –
Caco-2 [4], 10 nM | – | – | 99.6 | – | –
Caco-2 [4], 100 nM | – | – | 100 | – | –
Caco-2 [4], 1000 nM | – | – | 102 | – | –
Caco-2 [4], 10000 nM | – | – | 66.1 | – | –
Calu-3 [6], 1 nM | – | – | 112 | – | –
Calu-3 [6], 10 nM | – | – | 105 | – | –
Calu-3 [6], 100 nM | – | – | 110 | – | –
Calu-3 [6], 1000 nM | – | – | 103 | – | –
Calu-3 [6], 10000 nM | – | – | 39 | – | –
HepG2 [8], 1 nM | – | – | 90.3 | – | –
HepG2 [8], 10 nM | – | – | 103 | – | –
HepG2 [8], 100 nM | – | – | 87.4 | – | –
HepG2 [8], 1000 nM | – | – | 88.7 | – | –
HepG2 [8], 10000 nM | – | – | 45.3 | – | –
U2OS [7], 1 nM | – | – | 100 | – | –
U2OS [7], 10 nM | – | – | 96.4 | – | –
U2OS [7], 100 nM | – | – | 94.7 | – | –
U2OS [7], 1000 nM | – | – | 93.3 | – | –
U2OS [7], 10000 nM | – | – | 80.1 | – | –
Vero E6 [5], 1 nM | – | – | 99.5 | – | –
Vero E6 [5], 10 nM | – | – | 97.4 | – | –
Vero E6 [5], 100 nM | – | – | 93.7 | – | –
Vero E6 [5], 1000 nM | – | – | 92.6 | – | –
Vero E6 [5], 10000 nM | – | – | 63 | – | –
[1], 0.1 µM | – | 107 | – | – | –
[1], 0.3 µM | – | 103 | – | – | –
[1], 1 µM | – | 107 | – | – | –
[1], 3 µM | – | 127 | – | – | –
[2], 0.1 µM | – | – | – | -0.05 | –
[2], 0.3 µM | – | – | – | 0.39 | –
[2], 1 µM | – | – | – | 0.55 | –
[2], 3 µM | – | – | – | 0.9 | –
[10], 0.1 µM | 109 | – | – | – | –
[10], 0.3 µM | 87 | – | – | – | –
[10], 1 µM | 76 | – | – | – | –
[10], 3 µM | 55 | – | – | – | –

drug-induced phospholipidosis [%], A549-ACE2 [9]
Conditions | 0.3 µM | 0.833333 µM | 3.33333 µM | 6.66667 µM | 10 µM
24 h | 0.51 | 1.58 | 47.7 | 76.9 | 81.2
48 h | 1.97 | 2.56 | 41 | 88.5 | 101
72 h | 2.46 | 1.09 | 30.1 | 85.5 | 98.7

Conditions | drug sensitivity score | relative viability EC50 [µM]
Caco-2 [11] | 1.4 | –
Calu-3 [13] | 3.1 | –
Calu-3 [19] | – | 3.43
HepG2 [15] | 4.7 | –
HepG2 [18] | – | 1.76
U2OS [14] | 0.8 | –
U2OS [20] | – | > 10
Vero E6 [12] | 3 | –

CN1[C@@H]2CC[C@H]1C[C@@H](OC(c1ccccc1)c1ccccc1)C2 [benztropine-mesylate]
Conditions | SARS-CoV-2 infection rate [%] | cell count [%] | cell viability [%] | morphology score | phospholipidosis EC50 [µM]
A549-ACE2 [3], 24 h | – | – | – | – | 8.44
A549-ACE2 [3], 48 h | – | – | – | – | 9.6
A549-ACE2 [3], 72 h | – | – | – | – | 9.86
Caco-2 [4], 1 nM | – | – | 96.2 | – | –
Caco-2 [4], 10 nM | – | – | 98 | – | –
Caco-2 [4], 100 nM | – | – | 94.5 | – | –
Caco-2 [4], 1000 nM | – | – | 103 | – | –
Caco-2 [4], 10000 nM | – | – | 93 | – | –
Calu-3 [6], 1 nM | – | – | 101 | – | –
Calu-3 [6], 10 nM | – | – | 101 | – | –
Calu-3 [6], 100 nM | – | – | 109 | – | –
Calu-3 [6], 1000 nM | – | – | 116 | – | –
Calu-3 [6], 10000 nM | – | – | 94.2 | – | –
HepG2 [8], 1 nM | – | – | 103 | – | –
HepG2 [8], 10 nM | – | – | 102 | – | –
HepG2 [8], 100 nM | – | – | 103 | – | –
HepG2 [8], 1000 nM | – | – | 89 | – | –
HepG2 [8], 10000 nM | – | – | 92.1 | – | –
U2OS [7], 1 nM | – | – | 95.2 | – | –
U2OS [7], 10 nM | – | – | 98 | – | –
U2OS [7], 100 nM | – | – | 95.5 | – | –
U2OS [7], 1000 nM | – | – | 98.3 | – | –
U2OS [7], 10000 nM | – | – | 92.4 | – | –
Vero E6 [5], 1 nM | – | – | 99.4 | – | –
Vero E6 [5], 10 nM | – | – | 104 | – | –
Vero E6 [5], 100 nM | – | – | 103 | – | –
Vero E6 [5], 1000 nM | – | – | 97.5 | – | –
Vero E6 [5], 10000 nM | – | – | 93.8 | – | –
[1], 0.3 µM | – | 98 | – | – | –
[1], 3 µM | – | 112 | – | – | –
[1], 10 µM | – | 123 | – | – | –
[1], 30 µM | – | 120 | – | – | –
[2], 0.3 µM | – | – | – | -0.15 | –
[2], 3 µM | – | – | – | 0.67 | –
[2], 10 µM | – | – | – | 0.82 | –
[2], 30 µM | – | – | – | 0.71 | –
[10], 0.3 µM | 106 | – | – | – | –
[10], 3 µM | 60 | – | – | – | –
[10], 10 µM | 33 | – | – | – | –
[10], 30 µM | 12 | – | – | – | –

drug-induced phospholipidosis [%], A549-ACE2 [9]
Conditions | 0.3 µM | 0.833333 µM | 3.33333 µM | 6.66667 µM | 10 µM | 30 µM
24 h | 2.39 | -1.85 | 12.3 | 31.1 | 63.2 | 94.2
48 h | 3.49 | 2.96 | 8.82 | 25.8 | 58.8 | 103
72 h | 4.91 | 3.92 | 10.9 | 27.1 | 59.7 | 107

Conditions | drug sensitivity score | relative viability EC50 [µM]
Caco-2 [11] | 0 | –
Caco-2 [16] | – | > 10
Calu-3 [13] | 0 | –
Calu-3 [19] | – | > 10
HepG2 [15] | 0.2 | –
HepG2 [18] | – | > 10
U2OS [14] | 0 | –
U2OS [20] | – | > 10
Vero E6 [12] | 0 | –
Vero E6 [17] | – | > 10
